# Source: publication PMC5013292, “A Putative Bacterial ABC Transporter Circumvents the Essentiality of Signal Peptidase” (mBio, 2016)
# Key:
# [1] = biological target: T1, full length recombinant SpsB (Staphylococcus aureus, UniProt P0A070); test: Enzymatic activity of recombinant SpsB; assay type: biochemical, S. aureus; settings: result in words; Fig. S1C
# T1 construct: 500 pM full length recombinant SpsB from S. aureus
# Protocol: White 384-well low-volume polypropylene assay plates (Thermo Scientific, Waltham, MA) were pre-spotted with 25 nL per well of compound 103, serially diluted in DMSO, using an Echo instrument (Labcyte, Sunnyvale, CA). A 10 µL reaction in PBS (pH 7.4) containing 0.1% Triton X-100 was then initiated by adding 500 pM full length recombinant SpsB from S. aureus plus 10 µM fluorogenic peptide substrate Dabcyl-βAla-KPAKAAE-Edans (GL Biochem, Boston, MA). Substrate cleavage separates the Dabcyl quencher from the Edans fluorophore, resulting in 490nm fluorescence (340nm excitation). The reaction was read kinetically using an M-1000 plate reader (Tecan, Morrisville, NC), plotting the initial slope (rate) of fluorescence generation versus inhibitor concentration to derive IC50 values.
# [2] = system: 102 globally diverse clinical S. aureus isolates; test: MIC, global panel of 102 clinical isolates; assay type: cell-based; settings: among a panel of 102 clinical S. aureus isolates
# Excerpt: Wild-type clinical S. aureus strains were obtained from the Network on Antibiotic Resistance in Staphylococcus aureus (NARSA/BEI) program. MRSA strain USA300 refers throughout this paper to strain NRS384 from NARSA/BEI. A global panel of 102 clinical S. aureus isolates was selected from the collection of International Health Management Associates, Inc. (IHMA; Schaumburg, IL), based on diversity of geographic locations, antibiotic resistance profiles, and sites of infection. Bacteria were cultured on cation-adjusted Mueller-Hinton agar (MHA) plates or in cation-adjusted Mueller-Hinton broth (MHB). Bacterial strains used in this study are listed in Table S5 in the supplemental material.
# (§1) MICs were determined according to the standard protocol from the Clinical and Laboratory Standards Institute ([23]). Briefly, S. aureus bacteria were harvested from regular MHA plates that had been cultured for ~20 h at 37°C. Serial dilutions of compound 103 were incubated with bacteria at approximately 10^6 CFU (CFU)/ml in MHB in round-bottom 96 well plates (Corning, Corning, NY) for 22 h at 37°C. MICs were determined by the lowest concentration of compound 103 showing absence of growth by visual inspection.
# [3] = system: S. aureus USA300; test: Frequency of spontaneous resistance, USA300; assay type: cell-based; settings: agar with compound 103 at fourfold its MIC; 37°C, 2 days; output/input CFU
# Protocol: To determine the frequency of spontaneous resistance, suspensions containing approximately 5 × 10^9 CFU of S. aureus were cultured on MHA plates containing compound 103 at fourfold the MIC; serial dilutions were cultured in parallel on regular MHA to determine the actual number of CFU (input). The frequency of spontaneous resistance was defined as the number of viable colonies able to grow in the presence of compound 103 after culture at 37°C for 2 days (output) divided by input.
# [4] = system: cro/cI(M1V)(pMK4) (GNE0107); test: MIC fold increase, GNE0107; assay type: cell-based, S. aureus
# Protocol: as §1
# [5] = system: cro/cI(M1V)(pcro/cI-cro/cI) (GNE0109); test: MIC fold increase, GNE0109; assay type: cell-based, S. aureus
# Protocol: as §1
# [6] = system: SpsB V49L mutant of USA300 Δmcr cro/cI(Q16stop) SAUSA300_0352(K44A); test: MIC fold increase, SpsB V49L mutant; assay type: cell-based, S. aureus
# Protocol: as §1
# [7] = system: SpsB V167D mutant of USA300 Δmcr cro/cI(Q16stop) SAUSA300_0352(K44A); test: MIC fold increase, SpsB V167D mutant; assay type: cell-based, S. aureus
# Protocol: as §1
# T1 sequence (P0A070 whole entry): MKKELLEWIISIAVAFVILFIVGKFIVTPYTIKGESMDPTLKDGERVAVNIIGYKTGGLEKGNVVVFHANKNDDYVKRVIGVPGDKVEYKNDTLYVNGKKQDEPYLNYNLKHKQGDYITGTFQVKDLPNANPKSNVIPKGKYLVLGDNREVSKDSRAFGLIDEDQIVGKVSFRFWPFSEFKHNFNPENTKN
compound,measurement,setting,value
CCCCc1ccc(-c2ccc(C(=O)N[C@@H](CCCCN)C(=O)N(C)[C@@H]3C(=O)N[C@@H](C)C(=O)N[C@H](C(=O)NCC(C)C(=O)O)Cc4ccc(O)c(c4)-c4cc3ccc4O)cc2)cc1 (some centres unmarked) [Compound 103],inhibition of enzymatic activity of recombinant SpsB,[1],dose dependently inhibited
same,isolates resistant to compound 103,[2],7 isolates
same,frequency of spontaneous resistance,[3],3 × 10^−7
same,MIC of compound 103 (fold increase versus MIC for USA300 WT),[4],>32 fold
same,MIC of compound 103 (fold increase versus MIC for USA300 WT),[5]; GNE0109,1.7 fold
same,resistance phenotype,"[5]; GNE0109, plasmid-encoded WT cro/cI, result in words",reversed the resistant phenotype
same,MIC of compound 103 (fold increase versus MIC for USA300 WT),[6],4 fold
same,MIC of compound 103 (fold increase versus MIC for USA300 WT),[7],8 fold
